Data on four molecules can be found in ChEMBL document CHEMBL5244252, “PROTAC: A promising technology for cancer treatment” (Eur J Med Chem, 2020).

Experiment [1] is described as follows: Antiproliferative activity against human HBL1 cells expressing BTK C481S mutant assessed as growth inhibition. It is filed as functional.
The target in experiment [2] is von Hippel-Lindau disease tumor suppressor/Steroid hormone receptor ERR1 (Homo sapiens) (UniProt P11474+P40337). As to the kind of experiment: Protac activity at VHL/ERRalpha in human MCF7 cells assessed as maximum degradation. Type of experiment: cell-based.
Experiment [3] deals with T1, Steroid hormone receptor ERR1 (Homo sapiens) (UniProt P11474).
T1 sequence (whole entry): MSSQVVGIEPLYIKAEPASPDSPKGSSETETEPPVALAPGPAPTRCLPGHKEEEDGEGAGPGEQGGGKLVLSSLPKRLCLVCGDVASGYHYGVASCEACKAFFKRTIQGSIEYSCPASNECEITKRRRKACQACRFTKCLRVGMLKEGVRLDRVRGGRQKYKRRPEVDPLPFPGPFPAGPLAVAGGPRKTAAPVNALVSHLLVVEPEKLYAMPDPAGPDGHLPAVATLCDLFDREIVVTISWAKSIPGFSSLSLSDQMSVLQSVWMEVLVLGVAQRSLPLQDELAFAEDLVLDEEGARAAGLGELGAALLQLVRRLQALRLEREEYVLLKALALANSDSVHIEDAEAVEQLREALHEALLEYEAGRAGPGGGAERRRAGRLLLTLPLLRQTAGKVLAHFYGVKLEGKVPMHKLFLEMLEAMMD
The experiment in a line: In vivo protac activity at ERRalpha in human MDA-MB-231 cells xenografted mouse assessed as reduction in ERRalpha level in tumor at 100 mg/kg, ip administered 3 times a day. It is filed as functional, organism-based. The arrangement: scale not given: the % may be the effect or the level left.

The target in experiment [4] is Cellular tumor antigen p53 (Homo sapiens) (UniProt P04637). As to the kind of experiment: Induction of p53 stabilization in human HCT-116 cells assessed as fold increase by Western blot analysis. It is filed as cell-based.

Molecules are shown by their SMILES.

Chain of Cellular tumor antigen p53 (Homo sapiens) (P04637 whole entry, looked up): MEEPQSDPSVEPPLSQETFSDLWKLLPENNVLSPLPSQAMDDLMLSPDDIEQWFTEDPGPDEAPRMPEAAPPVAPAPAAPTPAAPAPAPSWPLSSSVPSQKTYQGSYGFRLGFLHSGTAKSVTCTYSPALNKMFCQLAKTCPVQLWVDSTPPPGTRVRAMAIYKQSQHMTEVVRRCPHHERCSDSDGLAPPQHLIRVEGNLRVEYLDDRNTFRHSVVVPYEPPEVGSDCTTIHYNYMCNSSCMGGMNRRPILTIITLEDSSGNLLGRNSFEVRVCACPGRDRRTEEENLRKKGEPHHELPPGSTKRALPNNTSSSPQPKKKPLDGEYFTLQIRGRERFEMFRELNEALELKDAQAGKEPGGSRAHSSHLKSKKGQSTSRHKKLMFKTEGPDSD
Chain of von Hippel-Lindau disease tumor suppressor/Steroid hormone receptor ERR1 (Homo sapiens) (P40337 whole entry, looked up, one chain of several): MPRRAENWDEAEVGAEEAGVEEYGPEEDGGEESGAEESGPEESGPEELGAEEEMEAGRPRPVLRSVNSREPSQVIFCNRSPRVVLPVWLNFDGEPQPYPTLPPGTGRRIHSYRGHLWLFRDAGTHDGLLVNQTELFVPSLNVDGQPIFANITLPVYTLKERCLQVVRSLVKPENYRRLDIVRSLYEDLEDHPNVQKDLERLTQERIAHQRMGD

With `Nc1ncnc2c1c(-c1ccc(Oc3ccccc3)cc1)nn2[C@@H]1CCCN(C(=O)c2cn(CCOCCOCCOCCNc3cccc4c3C(=O)N(C3CCC(=O)NC3=O)C4=O)nn2)C1` (stereo not given in full), the 50% growth inhibitory concentration (GI50) in experiment [1] came to 0.028 µM.

For `COc1cc(/C=C2/SC(=O)N(CCOCCC(=O)N[C@@H](C(=O)N3C[C@H](O)C[C@H]3C(=O)Nc3ccc(-c4scnc4C)cc3)C(C)(C)C)C2=O)ccc1Oc1ccc(C#N)cc1C(F)(F)F`, the Emax in experiment [2] amounted to 86%. Further, the Activity in experiment [3] was found to be 39%.

For `COc1cc(C(=O)NCCOCCOCCOCCNC(=O)C[C@@H]2N=C(c3ccc(Cl)cc3)C3C(C)=C(C)SC3n3c(C)nnc32)ccc1NC(=O)[C@@H]1N[C@@H](CC(C)(C)C)[C@](C#N)(c2ccc(Cl)cc2F)[C@H]1c1cccc(Cl)c1F` (stereo not given in full), the fold change (FC) in experiment [4] was 5.9.

Regarding `C=CC(=O)N1CCC[C@@H](n2nc(-c3ccc(Oc4ccccc4)cc3)c3c(N)ncnc32)C1` [IBRUTINIB], in experiment [1], the GI50 was determined as 0.7 µM.
